The values below come from PMC7284125, “Identification of annotated bioactive molecules that impair motility of the blood fluke Schistosoma mansoni” (International Journal for Parasitology: Drugs and Drug …, 2020).

The test system of the first assay is S. mansoni adult worms. As to the kind of experiment: Motility assay on adult parasites (pixel displacement, relative to DMSO control). Format: cell-based, Schistosoma mansoni. The conditions noted are these: secondary screen, 10 μM, D1, Female adult worms. The method, boiled down: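 Unpaired adult worms from mice 6 weeks post-infection kept in OPTI-MEM with 5% dialyzed FBS and exposed to compounds at 1 and 10 μM for 24 h. Motility filmed 1 min at 10 frames/s, quantified by pixel displacement versus DMSO-treated worms; recovery followed up to five days after washout.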
As to `CN1CCN(C2=Nc3cc(Cl)ccc3Nc3ccccc32)CC1` [Clozapine], the Fractional motility was 2.39.
As to `CCOC(=O)C1=C(C)NC(C)=C(C(=O)OCC)C1c1ccccc1/C=C/C(=O)OC(C)(C)C` [Lacidipine], the Fractional motility is reported as -0.73.

The same assay, now with this note: secondary screen, 10 μM, D1, Male adult worms.
As to `CN1CCN(C2=Nc3cc(Cl)ccc3Nc3ccccc32)CC1` [Clozapine], the Fractional motility was 2.19.
With `CCOC(=O)C1=C(C)NC(C)=C(C(=O)OCC)C1c1ccccc1/C=C/C(=O)OC(C)(C)C` [Lacidipine], the Fractional motility is -0.50.

Staying with this assay, now noted: secondary screen, 10 μM, D5, Female adult worms.
Take `CN1CCN(C2=Nc3cc(Cl)ccc3Nc3ccccc32)CC1` [Clozapine]: the Fractional motility was -0.70.
On to `CCOC(=O)C1=C(C)NC(C)=C(C(=O)OCC)C1c1ccccc1/C=C/C(=O)OC(C)(C)C` [Lacidipine], for which the Fractional motility is -0.82.

Still in this assay, the particulars now being: secondary screen, 10 μM, D5, Male adult worms.
In turn, `CN1CCN(C2=Nc3cc(Cl)ccc3Nc3ccccc32)CC1` [Clozapine] showed a Fractional motility of 0.45.
Turning to `CCOC(=O)C1=C(C)NC(C)=C(C(=O)OCC)C1c1ccccc1/C=C/C(=O)OC(C)(C)C` [Lacidipine], the Fractional motility is -0.53.

For a further assay, the target named is SmD2 (Schistosoma mansoni, UniProt G4LUJ1). Nature of the assay: cell-based. Format: cell-based. The conditions noted are these: inhibition of EPN-evoked luminescence, SmD2 expressing HEK293 cells; read-out: IC50.
SmD2, sequence (G4LUJ1 entry or part of it): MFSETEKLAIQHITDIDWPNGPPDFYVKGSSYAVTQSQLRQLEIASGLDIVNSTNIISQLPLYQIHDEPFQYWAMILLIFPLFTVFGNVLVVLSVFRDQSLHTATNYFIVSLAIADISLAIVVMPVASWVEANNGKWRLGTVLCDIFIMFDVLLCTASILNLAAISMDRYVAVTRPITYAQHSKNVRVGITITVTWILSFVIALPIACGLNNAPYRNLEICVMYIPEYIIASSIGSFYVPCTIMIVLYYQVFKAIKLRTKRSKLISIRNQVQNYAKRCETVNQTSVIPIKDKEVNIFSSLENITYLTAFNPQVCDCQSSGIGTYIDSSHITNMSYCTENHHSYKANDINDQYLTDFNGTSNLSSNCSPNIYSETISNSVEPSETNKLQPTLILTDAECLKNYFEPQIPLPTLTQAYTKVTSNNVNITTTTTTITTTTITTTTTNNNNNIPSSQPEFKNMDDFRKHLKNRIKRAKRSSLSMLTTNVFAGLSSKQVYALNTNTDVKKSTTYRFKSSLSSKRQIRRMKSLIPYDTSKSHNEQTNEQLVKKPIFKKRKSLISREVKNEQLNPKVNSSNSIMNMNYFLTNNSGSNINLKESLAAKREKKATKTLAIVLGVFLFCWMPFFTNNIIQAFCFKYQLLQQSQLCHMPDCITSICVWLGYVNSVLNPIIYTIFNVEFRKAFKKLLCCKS
As to `OC(CNCCc1ccccc1)COc1ccccc1C1CCCCC1` (stereo not shown) [compound 35], the IC50 (usually the concentration at which inhibition is half-maximal) turned out to be 12.3 nM.
Take `COc1ccc(CCNCC(O)COc2ccccc2C2CC3CCC2C3)cc1OC` (stereo not shown) [compound 28]: the 50% inhibitory concentration (IC50) worked out at 27.2 nM.
Turning to `O=C(CCCN1CCC2(CC1)C(=O)NCN2c1ccccc1)c1ccc(F)cc1` [spiperone], the half-inhibitory concentration (IC50) was found to be 1510 nM.
Same read-out and setting: next, `CC(=O)Nc1ccc(CCNCC(O)COc2cccc3ccccc23)cc1` (stereo not shown) [compound 31]: 21.7 nM.

Staying with this assay, now noted: luminescent cAMP signal, agonist.
Take `CNCCc1ccc(O)c(O)c1` [EPN, epinine]: the concentration giving a half-maximal response (EC50) (usually the concentration at which the effect is half-maximal) was 2520 ± 1120 nM.

In another assay the test system is S. mansoni schistosomulae. Nature of the assay: Motility assay on schistosomulae (pixel displacement, relative to DMSO control). Format: cell-based, Schistosoma mansoni. The conditions noted are these: NPS-2143 and analogs, 24h, D1, 10 µM. The method, boiled down:
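Mechanically transformed S. mansoni schistosomulae (200/well) in Opti-MEM with 5% dialyzed FBS were exposed to compounds at 1 and 10 μM for 24 h at 37 °C, 5% CO2. Motility filmed at 10 frames/s for 1 min and quantified by pixel displacement relative to DMSO-treated controls.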
For the compound `OC(CNCCc1ccccc1)COc1ccccc1C1CCCCC1` (stereo not shown) [compound 35], the Fractional motility is -0.99.
On to `COc1ccc(CCNCC(O)COc2ccccc2C2CC3CCC2C3)cc1OC` (stereo not shown) [compound 28], for which the Fractional motility is on record as -1.00.
With `CC(=O)Nc1ccc(CCNCC(O)COc2cccc3ccccc23)cc1` (stereo not shown) [compound 31], the Fractional motility is recorded as -0.82.

Still in this assay, the particulars now being: NPS-2143 and analogs, 24h, D5, 10 µM.
Consider `COc1ccc(CCNCC(O)COc2ccccc2C2CC3CCC2C3)cc1OC` (stereo not shown) [compound 28], for which the Fractional motility is -1.00.
Take `CC(=O)Nc1ccc(CCNCC(O)COc2cccc3ccccc23)cc1` (stereo not shown) [compound 31]: the Fractional motility is given as -0.79.

The assay is the same for the next values; noted with them: Schistosoma mansoni, 120 h; NPS-2143 and analogs, 24h, D5, 1 µM; read-out: Fractional motility.
As for `COc1ccc(CCNCC(O)COc2ccccc2C2CC3CCC2C3)cc1OC` (stereo not shown) [compound 28], the activity at 1 µM is -67%.
On the same count and under the same terms, the result for `CC(=O)Nc1ccc(CCNCC(O)COc2cccc3ccccc23)cc1` (stereo not shown) [compound 31] reads -34%.

The assay is the same for the next values; noted with them: Schistosoma mansoni, 120 h; schistosomulae, secondary screen, 24h exposure, read at D5, 1 µM; read-out: Fractional motility.
As to `CN1CCN(C2=Nc3cc(Cl)ccc3Nc3ccccc32)CC1` [Clozapine], the activity at 1 µM is 121%.
In the case of `CCOC(=O)C1=C(C)NC(C)=C(C(=O)OCC)C1c1ccccc1/C=C/C(=O)OC(C)(C)C` [Lacidipine], the activity at 1 µM was -11%.

The assay is the same for the next values; noted with them: Schistosoma mansoni; NPS-2143 and analogs, 24h, D1, 1 µM; read-out: Fractional motility.
For the compound `COc1ccc(CCNCC(O)COc2ccccc2C2CC3CCC2C3)cc1OC` (stereo not shown) [compound 28], the activity at 1 µM is -69%.
As for `CC(=O)Nc1ccc(CCNCC(O)COc2cccc3ccccc23)cc1` (stereo not shown) [compound 31], the activity at 1 µM is -69%.

The same assay, now with this note: Schistosoma mansoni; schistosomulae, secondary screen, 24h exposure, read at D1, 1 µM; read-out: Fractional motility.
`CN1CCN(C2=Nc3cc(Cl)ccc3Nc3ccccc32)CC1` [Clozapine]: the activity at 1 µM came out at 625%.
Take `CCOC(=O)C1=C(C)NC(C)=C(C(=O)OCC)C1c1ccccc1/C=C/C(=O)OC(C)(C)C` [Lacidipine]: the activity at 1 µM was 99%.

Still in this assay, the particulars now being: schistosomulae, secondary screen, 24h exposure, read at D1, 10 µM.
Consider `CN1CCN(C2=Nc3cc(Cl)ccc3Nc3ccccc32)CC1` [Clozapine], for which the Fractional motility is reported as 23.43.
Same read-out and setting: next, `CCOC(=O)C1=C(C)NC(C)=C(C(=O)OCC)C1c1ccccc1/C=C/C(=O)OC(C)(C)C` [Lacidipine]: 3.79.

The assay is the same for the next values; noted with them: schistosomulae, secondary screen, 24h exposure, read at D5, 10 µM.
On to `CN1CCN(C2=Nc3cc(Cl)ccc3Nc3ccccc32)CC1` [Clozapine], for which the Fractional motility is reported as -0.13.
`CCOC(=O)C1=C(C)NC(C)=C(C(=O)OCC)C1c1ccccc1/C=C/C(=O)OC(C)(C)C` [Lacidipine] had a Fractional motility of 0.28.

The subject of another assay is S. mansoni schistosomulae. As to the kind of experiment: Phenotypic primary screen assay on schistosomulae (phenotype; viability by methylene blue dye exclusion). Format: cell-based. The conditions noted are these: Schistosoma mansoni; three-day-old schistosomulae, 10 μM, 24 h; calculated 5 days post compound exposure; read-out: Viability (%).
Turning to `CN1CCN(C2=Nc3cc(Cl)ccc3Nc3ccccc32)CC1` [Clozapine], the viability (usually the share of living cells, or the viability signal relative to a control) at 10 µM is 98%.
In the case of `CCOC(=O)C1=C(C)NC(C)=C(C(=O)OCC)C1c1ccccc1/C=C/C(=O)OC(C)(C)C` [Lacidipine], the viability at 10 µM is 99%.

In another assay the test system is S. mansoni schistosomulae. The description is as above. It is filed as cell-based, Schistosoma mansoni. The conditions noted are these: three-day-old schistosomulae, 10 μM, 24 h; estimated 5 days post compound exposure. The method, boiled down:
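Parasites lacking contraction/relaxation cycles and showing dark internal granulations counted as dead. Movement and body shape were compared with DMSO-treated controls under a stereo microscope at 24 h and at five days of exposure. Larvae came from infected snails shed under light for 2 h at 32 °C.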
Take `CN1CCN(C2=Nc3cc(Cl)ccc3Nc3ccccc32)CC1` [Clozapine]: the Phenotype result is on record as “elongated”.
As for `CCOC(=O)C1=C(C)NC(C)=C(C(=O)OCC)C1c1ccccc1/C=C/C(=O)OC(C)(C)C` [Lacidipine], the Phenotype result was “granulated”.
